Patent publication US4205163A, “Tylosin derivatives” (Sanraku-Ocean Co., Ltd., priority 1977, dated 1980)
Converted amounts (≈) assume the structure as drawn.

Tests used:
Test in all cases: antimicrobial activity, broth dilution method
Format in all cases: cell-based
[1] = system: Staphylococcus aureus MS-9937; settings: Staphylococcus aureus MS-9937, drug-resistant clinical isolate; for MIC: MS9937, read-out: minimum inhibitory concentration (MIC)
Procedure: (§1) Antimicrobial activity of the new antibiotics according to the present invention was measured on various pathogenic microorganisms by the broth dilution mehtod. Tab. […] The new antibiotics show a similar antimicrobial spectrum to that of tylosin as shown in Tab. 4. All the compounds have an excellent antimicrobial activity mainly on gram-positive bacteria. […] Test microorganisms with an asterisk mark (*) in Tab. 4 are all drug-resistant strains that were clinically isolated. More in detail, Staphylococcus aureus MS-8710 is resistant to tylosin, penicillin, tetracycline, erythromycin and leucomycin. Staphylococcus aureus MS-9931 is resistant to tylosin, penicillin, erythromycin, tetracycline, leucomycin, spiramycin and josamycin. And also Streptococcus piogenes is resistant to tylosin, erythromycin, oleandomycin and leucomycin.

[2] = system: Staphylococcus aureus SMITH; settings: Staphylococcus aureus SMITH, broth dilution; for MIC: Staphylococcus aureus, read-out: minimum inhibitory concentration (MIC)
Procedure: as §1

[3] = system: Staphylococcus aureus MS-8710; settings: for MIC: Staphylococcus aureus, MS8710, Staphylococcus aureus MS-8710, drug-resistant clinical isolate, read-out: minimum inhibitory concentration (MIC)
Procedure: as §1

Sarcina lutea ATCC 9341 = settings: for MIC: Micrococcus luteus, ATCC9341, Sarcina lutea ATCC 9341, read-out: minimum inhibitory concentration (MIC)
Procedure: as §1

[4] = system: Staphylococcus aureus MS-9931; settings: Staphylococcus aureus MS-9931, drug-resistant clinical isolate; for MIC: MS9931, read-out: minimum inhibitory concentration (MIC)
Procedure: as §1

[5] = system: Bacillus cereus ATCC 9634; settings: broth dilution; for MIC: Bacillus cereus, ATCC9634, Bacillus cereus ATCC 9634, read-out: minimum inhibitory concentration (MIC)
Procedure: as §1

[6] = system: Staphylococcus aureus FDA-209P; settings: Staphylococcus aureus FDA-209P, broth dilution; for MIC: Staphylococcus aureus, FDA209P, read-out: minimum inhibitory concentration (MIC)
Procedure: as §1

[7] = system: Streptococcus pyogenes MH-771; settings: for MIC: Streptococcus pyogenes, MH771, Streptococcus pyogenes MH-771, drug-resistant clinical isolate, read-out: minimum inhibitory concentration (MIC)
Procedure: as §1

Compound | MIC [1] [µg/mL] | MIC [2] [µg/mL] | MIC [3] [µg/mL] | MIC (Sarcina lutea ATCC 9341) [µg/mL] | MIC [4] [µg/mL] | MIC [5] [µg/mL] | MIC [6] [µg/mL] | MIC [7] [µg/mL] | minimum inhibitory concentration (MIC) [1] [µg/mL] | minimum inhibitory concentration (MIC) [2] [µg/mL] | minimum inhibitory concentration (MIC) ([3]; Staphylococcus aureus MS-8710, drug-resistant clinical isolate) [µg/mL] | minimum inhibitory concentration (MIC) (Sarcina lutea ATCC 9341; Sarcina lutea ATCC 9341) [µg/mL] | minimum inhibitory concentration (MIC) [4] [µg/mL] | minimum inhibitory concentration (MIC) ([5]; Bacillus cereus ATCC 9634) [µg/mL] | minimum inhibitory concentration (MIC) [6] [µg/mL] | minimum inhibitory concentration (MIC) ([7]; Streptococcus pyogenes MH-771, drug-resistant clinical isolate) [µg/mL]
CCC1OC(=O)CC(OC(C)=O)C(C)C(OC2OC(C)C(OC3CC(C)(O)C(OC(=O)CSc4ccncc4)C(C)O3)C(N(C)C)C2O)C(CC=O)CC(C)C(=O)C=CC(C)=CC1COC1OC(C)C(O)C(OC)C1OC (stereo not shown) [Compound 42, 3-acetyl-4"-(4-pyridyl)thioacetyltylosin] | 6.25 (≈ 5.63 µM) | 0.39 (≈ 0.352 µM) | 6.25 (≈ 5.63 µM) | 0.19 (≈ 0.171 µM) | 12.5 (≈ 11.3 µM) | 0.39 (≈ 0.352 µM) | 0.39 (≈ 0.352 µM) | 3.13 (≈ 2.82 µM) | – | – | – | – | – | – | – | –
CCCCCCCCCC(=O)OC1C(C)OC(OC2C(C)OC(OC3C(CC=O)CC(C)C(=O)C=CC(C)=CC(COC4OC(C)C(O)C(OC)C4OC)C(CC)OC(=O)CC(O)C3C)C(O)C2N(C)C)CC1(C)O (stereo not shown) [Compound 10, 4"-n-capryl(or n-decanoyl)tylosin] | 100 (≈ 93.4 µM) | 1.56 (≈ 1.46 µM) | 100 (≈ 93.4 µM) | 0.78 (≈ 0.729 µM) | 50 (≈ 46.7 µM) | 1.56 (≈ 1.46 µM) | 1.56 (≈ 1.46 µM) | 50 (≈ 46.7 µM) | – | – | – | – | – | – | – | –
CCC1OC(=O)CC(OC(C)=O)C(C)C(OC2OC(C)C(OC3CC(C)(O)C(OC(=O)C(OC(C)=O)c4ccc(OC(C)=O)cc4)C(C)O3)C(N(C)C)C2O)C(CC=O)CC(C)C(=O)C=CC(C)=CC1COC1OC(C)C(O)C(OC)C1OC (stereo not drawn) [Compound 21, 3-acetyl-4"-[α-acetoxy-(4-acetoxyphenyl)acetyl]tylosin] | 50 (≈ 41.9 µM) | 0.78 (≈ 0.654 µM) | 50 (≈ 41.9 µM) | 0.39 (≈ 0.327 µM) | 50 (≈ 41.9 µM) | 0.78 (≈ 0.654 µM) | 0.78 (≈ 0.654 µM) | 12.5 (≈ 10.5 µM) | – | – | – | – | – | – | – | –
CCC1OC(=O)CC(O)C(C)C(OC2OC(C)C(OC3CC(C)(O)C(OC(=O)CSc4cccc(C)c4)C(C)O3)C(N(C)C)C2O)C(CC=O)CC(C)C(=O)C=CC(C)=CC1COC1OC(C)C(O)C(OC)C1OC (stereo not shown) [Compound 36, 4"-(3-methylphenyl)thioacetyltylosin] | 50 (≈ 46.3 µM) | 0.78 (≈ 0.722 µM) | 25 (≈ 23.1 µM) | 0.39 (≈ 0.361 µM) | 50 (≈ 46.3 µM) | 0.78 (≈ 0.722 µM) | 0.78 (≈ 0.722 µM) | 25 (≈ 23.1 µM) | – | – | – | – | – | – | – | –
CCOC(=O)OC1C(C)OC(OCC2C=C(C)C=CC(=O)C(C)CC(CC=O)C(OC3OC(C)C(OC4CC(C)(O)C(O)C(C)O4)C(N(C)C)C3OC(C)=O)C(C)C(OC(C)=O)CC(=O)OC2CC)C(OC)C1OC (stereo not shown) [Compound 6, 3,2'-diacetyl-4'"-carboethoxytylosin] | 100 (≈ 93.3 µM) | 0.78 (≈ 0.727 µM) | 100 (≈ 93.3 µM) | 0.39 (≈ 0.364 µM) | 100 (≈ 93.3 µM) | 0.78 (≈ 0.727 µM) | 0.78 (≈ 0.727 µM) | 100 (≈ 93.3 µM) | – | – | – | – | – | – | – | –
CCC1OC(=O)CC(O)C(C)C(OC2OC(C)C(OC3CC(C)(O)C(OC(=O)Cc4cccc5ccccc45)C(C)O3)C(N(C)C)C2O)C(CC=O)CC(C)C(=O)C=CC(C)=CC1COC1OC(C)C(O)C(OC)C1OC (stereo not drawn) [Compound 22, 4"-α-naphthylacetyltylosin] | 25 (≈ 23.1 µM) | 1.56 (≈ 1.44 µM) | 12.5 (≈ 11.5 µM) | 0.39 (≈ 0.36 µM) | 25 (≈ 23.1 µM) | 1.56 (≈ 1.44 µM) | 1.56 (≈ 1.44 µM) | 50 (≈ 46.1 µM) | – | – | – | – | – | – | – | –
CCC1OC(=O)CC(OC(C)=O)C(C)C(OC2OC(C)C(OC3CC(C)(O)C(OC(=O)C(Cc4ccc(OC(C)=O)cc4)OC(C)=O)C(C)O3)C(N(C)C)C2O)C(CC=O)CC(C)C(=O)C=CC(C)=CC1COC1OC(C)C(O)C(OC)C1OC (stereo not drawn) [Compound 28, 3-acetyl-4"-[α-acetoxy-β-(4-acetoxyphenyl)propionyl]tylosin] | 25 (≈ 20.7 µM) | 1.56 (≈ 1.29 µM) | 25 (≈ 20.7 µM) | 0.78 (≈ 0.647 µM) | 50 (≈ 41.4 µM) | 1.56 (≈ 1.29 µM) | 1.56 (≈ 1.29 µM) | 25 (≈ 20.7 µM) | – | – | – | – | – | – | – | –
CCC1OC(=O)CC(O)C(C)C(OC2OC(C)C(OC3CC(C)(O)C(O)C(C)O3)C(N(C)C)C2OC(C)=O)C(CC=O)CC(C)C(=O)C=CC(C)=CC1COC1OC(C)C(OC(=O)CCl)C(OC)C1OC (stereo not shown) [Compound 1, 2'-acetyl-4'"-monochloracetyltylosin] | 200 (≈ 193 µM) | 1.56 (≈ 1.51 µM) | > 200 | 0.78 (≈ 0.754 µM) | 200 (≈ 193 µM) | 1.56 (≈ 1.51 µM) | 1.56 (≈ 1.51 µM) | 200 (≈ 193 µM) | – | – | – | – | – | – | – | –
CCC1OC(=O)CC(O)C(C)C(OC2OC(C)C(OC3CC(C)(O)C(OC(=O)COc4ccc5ccccc5c4)C(C)O3)C(N(C)C)C2O)C(CC=O)CC(C)C(=O)C=CC(C)=CC1COC1OC(C)C(O)C(OC)C1OC (stereo not drawn) [Compound 47, 4"-β-napthoxyacetyltylosin] | 25 (≈ 22.7 µM) | 0.78 (≈ 0.709 µM) | 25 (≈ 22.7 µM) | 0.19 (≈ 0.173 µM) | 25 (≈ 22.7 µM) | 0.78 (≈ 0.709 µM) | 0.78 (≈ 0.709 µM) | 12.5 (≈ 11.4 µM) | – | – | – | – | – | – | – | –
CCC1OC(=O)CC(OC(C)=O)C(C)C(OC2OC(C)C(OC3CC(C)(O)C(O)C(C)O3)C(N(C)C)C2OC(C)=O)C(CC=O)CC(C)C(=O)C=CC(C)=CC1COC1OC(C)C(OC(=O)CCl)C(OC)C1OC (stereo not shown) [Compound 3, 3,2'-diacetyl-4'"-monochloroacetyltylosin] | 100 (≈ 92.9 µM) | 1.56 (≈ 1.45 µM) | 100 (≈ 92.9 µM) | 0.78 (≈ 0.724 µM) | 100 (≈ 92.9 µM) | 1.56 (≈ 1.45 µM) | 1.56 (≈ 1.45 µM) | 100 (≈ 92.9 µM) | – | – | – | – | – | – | – | –
CCC(CC)C(=O)OC1C(C)OC(OC2C(C)OC(OC3C(CC=O)CC(C)C(=O)C=CC(C)=CC(COC4OC(C)C(O)C(OC)C4OC)C(CC)OC(=O)CC(OC(C)=O)C3C)C(O)C2N(C)C)CC1(C)O (stereo not drawn) [Compound 13, 3-acetyl-4"-α-ethyl-n-butyryltylosin] | 25 (≈ 23.7 µM) | 0.78 (≈ 0.738 µM) | 25 (≈ 23.7 µM) | 0.19 (≈ 0.18 µM) | 25 (≈ 23.7 µM) | 0.78 (≈ 0.738 µM) | 0.39 (≈ 0.369 µM) | 12.5 (≈ 11.8 µM) | – | – | – | – | – | – | – | –
CCC1OC(=O)CC(OC(C)=O)C(C)C(OC2OC(C)C(OC3CC(C)(O)C(OC(=O)C(OC(C)=O)c4ccccc4)C(C)O3)C(N(C)C)C2O)C(CC=O)CC(C)C(=O)C=CC(C)=CC1COC1OC(C)C(O)C(OC)C1OC [Compound 20, 3-acetyl-4"-L-(α-acetoxyphenylacetyl)tylosin] | – | – | – | – | – | – | – | – | 100 (≈ 88.2 µM) | 1.56 (≈ 1.38 µM) | 50 (≈ 44.1 µM) | 0.39 (≈ 0.344 µM) | 100 (≈ 88.2 µM) | 1.56 (≈ 1.38 µM) | 0.78 (≈ 0.688 µM) | 12.5 (≈ 11 µM)
CCC1OC(=O)CC(OC(C)=O)C(C)C(OC2OC(C)C(OC3CC(C)(O)C(OC(=O)C(OC(C)=O)c4ccccc4)C(C)O3)C(N(C)C)C2O)C(CC=O)CC(C)C(=O)C=CC(C)=CC1COC1OC(C)C(O)C(OC)C1OC [Compound 19, 3-acetyl-4"-D-(α-acetoxyphenylacetyl)tylosin] | 100 (≈ 88.2 µM) | 0.78 (≈ 0.688 µM) | 100 (≈ 88.2 µM) | 0.78 (≈ 0.688 µM) | 100 (≈ 88.2 µM) | 0.78 (≈ 0.688 µM) | 1.56 (≈ 1.38 µM) | 25 (≈ 22 µM) | – | – | – | – | – | – | – | –
CCC1OC(=O)CC(OC(C)=O)C(C)C(OC2OC(C)C(OC3CC(C)(O)C(OC(=O)C(Cc4ccccc4)OC(C)=O)C(C)O3)C(N(C)C)C2O)C(CC=O)CC(C)C(=O)C=CC(C)=CC1COC1OC(C)C(O)C(OC)C1OC [Compound 27, 3-acetyl-4"-L-[(α-acetoxy-β-phenyl)propionyl]tylosin] | 50 (≈ 43.5 µM) | 0.78 (≈ 0.679 µM) | 50 (≈ 43.5 µM) | 0.39 (≈ 0.34 µM) | 50 (≈ 43.5 µM) | 0.78 (≈ 0.679 µM) | 0.78 (≈ 0.679 µM) | 25 (≈ 21.8 µM) | – | – | – | – | – | – | – | –
